Molecular target: T1, SIRT1 (Homo sapiens, UniProt Q96EB6)
T1 sequence (Q96EB6 1-747): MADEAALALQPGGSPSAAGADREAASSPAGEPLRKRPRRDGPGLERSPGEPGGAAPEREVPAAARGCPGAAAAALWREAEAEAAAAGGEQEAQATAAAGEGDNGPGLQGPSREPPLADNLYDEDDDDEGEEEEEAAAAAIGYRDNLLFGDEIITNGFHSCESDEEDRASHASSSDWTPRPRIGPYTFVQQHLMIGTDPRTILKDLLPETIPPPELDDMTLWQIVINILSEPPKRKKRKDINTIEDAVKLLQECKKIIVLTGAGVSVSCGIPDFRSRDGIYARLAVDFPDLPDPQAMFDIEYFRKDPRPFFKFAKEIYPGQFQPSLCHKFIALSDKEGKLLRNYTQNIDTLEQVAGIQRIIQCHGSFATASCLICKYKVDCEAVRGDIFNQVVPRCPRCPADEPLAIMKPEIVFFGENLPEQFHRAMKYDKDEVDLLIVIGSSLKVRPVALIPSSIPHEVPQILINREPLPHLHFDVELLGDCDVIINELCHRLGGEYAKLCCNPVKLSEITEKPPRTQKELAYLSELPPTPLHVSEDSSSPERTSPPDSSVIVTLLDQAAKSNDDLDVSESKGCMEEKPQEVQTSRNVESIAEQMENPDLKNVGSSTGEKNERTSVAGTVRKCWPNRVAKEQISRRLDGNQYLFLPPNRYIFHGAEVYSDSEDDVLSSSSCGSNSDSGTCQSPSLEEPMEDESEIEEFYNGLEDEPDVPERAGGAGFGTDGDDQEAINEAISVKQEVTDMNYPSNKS
Assay: Trp mass spectrometry assay of SIRT1 activity (EC1.5, percent maximum activation)
Format: biochemical
Settings: Trp mass spectrometry assay; for TRP Activity (EC1.5): EC1.5 = concentration giving 150% activation of SIRT1; for TRP MAX RESP (percent maximum fold activation): percent maximum activation of SIRT1
Procedure, shortened: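 Activation values derive from mass-spectrometric measurement of NAD-dependent deacetylation product after a 25 min reaction of bacterially expressed His-tagged SIRT1 with a fluorophore-labelled Trp peptide.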

SMILES | TRP Activity (EC1.5) | TRP MAX RESP (percent maximum fold activation)
Cn1cc(-c2nc3c(cc2Cl)N2CC[C@@H](C2)N3C(=O)Nc2ccnc(OC[C@H](O)CO)c2)cn1 [Example 106, (4S)-8-chloro-N-(2-((R)-2,3-dihydroxypropoxy)pyridin-4-yl)-7-(1-methyl-1H-pyrazol-4-yl)-3,4-dihydro-1,4-methanopyrido[2,3-b][1,4]diazepine-5(2H)-carboxamide] | B (EC1.5 1-25 μM) | A (Fold activation ≧150%)
O=C(Nc1ccnc(OC[C@@H](O)CO)c1)N1c2nc(-c3cccc(C(F)F)c3)c(Cl)cc2N2CC[C@H]1C2 [Example 107, (4S)-8-chloro-7-(3-(difluoromethyl)phenyl)-N-(2-((S)-2,3-dihydroxypropoxy)pyridin-4-yl)-3,4-dihydro-1,4-methanopyrido[2,3-b][1,4]diazepine-5(2H)-carboxamide] | A (EC1.5<1 μM) | A (Fold activation ≧150%)
O=C(Nc1ccnc(OC[C@@H](O)CO)c1)N1c2nc(-c3ccnc(C(F)(F)F)c3)c(Cl)cc2N2CC[C@H]1C2 [Example 108, (4S)-8-chloro-N-(2-((S)-2,3-dihydroxypropoxy)pyridin-4-yl)-7-(2-(trifluoromethyl)pyridin-4-yl)-3,4-dihydro-1,4-methanopyrido[2,3-b][1,4]diazepine-5(2H)-carboxamide] | B (EC1.5 1-25 μM) | A (Fold activation ≧150%)
O=C(Nc1ccnc(OC[C@@H](O)CO)c1)N1c2nc(-c3cncc(C(F)(F)F)c3)c(Cl)cc2N2CC[C@H]1C2 [Example 109, (4S)-8-chloro-N-(2-((S)-2,3-dihydroxypropoxy)pyridin-4-yl)-7-(5-(trifluoromethyl)pyridin-3-yl)-3,4-dihydro-1,4-methanopyrido[2,3-b][1,4]diazepine-5(2H)-carboxamide] | B (EC1.5 1-25 μM) | A (Fold activation ≧150%)
Cc1cc(-c2nc3c(cc2Cl)N2CC[C@@H](C2)N3C(=O)Nc2cncc(OC[C@@H](O)CO)c2)ccn1 [Example 110, (4S)-8-chloro-N-(5-((S)-2,3-dihydroxypropoxy)pyridin-3-yl)-7-(2-methylpyridin-4-yl)-3,4-dihydro-1,4-methanopyrido[2,3-b][1,4]diazepine-5(2H)-carboxamide] | B (EC1.5 1-25 μM) | A (Fold activation ≧150%)
O=C(Nc1ccccn1)N1c2nc(N3CCC[C@H]3C(F)(F)F)ccc2N2CC[C@H]1C2 [Example 120, (4S)-N-(pyridin-2-yl)-7-((S)-2-(trifluoromethyl)pyrrolidin-1-yl)-3,4-dihydro-1,4-methanopyrido[2,3-b][1,4]diazepine-5(2H)-carboxamide] | B (EC1.5 1-25 μM) | A (Fold activation ≧150%)
Cc1cc(-c2ccc3c(n2)N(C(=O)Nc2ccc4c(c2)OCCO4)[C@H]2CCN3C2)ccn1 [Example 121, (4S)-N-(2,3-dihydrobenzo[b][1,4]dioxin-6-yl)-7-(2-methylpyridin-4-yl)-3,4-dihydro-1,4-methanopyrido[2,3-b][1,4]diazepine-5(2H)-carboxamide] | B (EC1.5 1-25 μM) | A (Fold activation ≧150%)
CCc1cncc(NC(=O)N2c3nc(-c4ccnc(C)c4)ccc3N3CC[C@H]2C3)n1 [Example 122, (4S)-N-(6-ethylpyrazin-2-yl)-7-(2-methylpyridin-4-yl)-3,4-dihydro-1,4-methanopyrido[2,3-b][1,4]diazepine-5(2H)-carboxamide] | A (EC1.5<1 μM) | A (Fold activation ≧150%)
O=C(Nc1cncc(OC[C@@H](O)CO)n1)N1c2nc(-c3cccc(C(F)(F)F)c3)ccc2N2CC[C@H]1C2 [Example 123, (4S)-N-(6-((S)-2,3-dihydroxypropoxy)pyrazin-2-yl)-7-(3-(trifluoromethyl)phenyl)-3,4-dihydro-1,4-methanopyrido[2,3-b][1,4]diazepine-5(2H)-carboxamide] | A (EC1.5<1 μM) | A (Fold activation ≧150%)
C[C@@H]1CN(c2ccc3c(n2)N(C(=O)Nc2cnccn2)[C@H]2CCN3C2)CCO1 [Example 124, (4S)-7-((R)-2-methylmorpholino)-N-(pyrazin-2-yl)-3,4-dihydro-1,4-methanopyrido[2,3-b][1,4]diazepine-5(2H)-carboxamide] |  | A (Fold activation ≧150%)
C[C@H]1CN(c2ccc3c(n2)N(C(=O)Nc2cnccn2)[C@H]2CCN3C2)CCO1 [Example 125, (4S)-7-((S)-2-methylmorpholino)-N-(pyrazin-2-yl)-3,4-dihydro-1,4-methano pyrido[2,3-b][1,4]diazepine-5(2H)-carboxamide] |  | A (Fold activation ≧150%)
Cc1cc(-c2ccc3c(n2)N(C(=O)Nc2ccc4c(c2)OCCCO4)[C@H]2CCN3C2)ccn1 [Example 126, (4S)-N-(3,4-dihydro-2H-benzo[b][1,4]dioxepin-7-yl)-7-(2-methylpyridin-4-yl)-3,4-dihydro-1,4-methanopyrido[2,3-b][1,4]diazepine-5(2H)-carboxamide] | A (EC1.5<1 μM) | A (Fold activation ≧150%)
O=C(Nc1ccnc(OC[C@H](O)CO)n1)N1c2nc(-c3cccc(C(F)(F)F)c3)ccc2N2CC[C@H]1C2 [Example 127, (4S)-N-(2-((R)-2,3-dihydroxypropoxy)pyrimidin-4-yl)-7-(3-(trifluoromethyl)phenyl)-3,4-dihydro-1,4-methanopyrido[2,3-b][1,4]diazepine-5(2H)-carboxamide] | A (EC1.5<1 μM) | A (Fold activation ≧150%)
O=C(Nc1cncc(OC[C@H](O)CO)n1)N1c2nc(-c3cccc(C(F)(F)F)c3)ccc2N2CC[C@H]1C2 [Example 128, (4S)-N-(6-((R)-2,3-dihydroxypropoxy)pyrazin-2-yl)-7-(3-(trifluoromethyl)phenyl)-3,4-dihydro-1,4-methanopyrido[2,3-b][1,4]diazepine-5(2H)-carboxamide] | A (EC1.5<1 μM) | A (Fold activation ≧150%)
Cc1cc(-c2ccc3c(n2)N(C(=O)Nc2cc4cn[nH]c4cn2)[C@H]2CCN3C2)ccn1 [Example 130, (4S)-7-(2-methylpyridin-4-yl)-N-(1H-pyrazolo[3,4-c]pyridin-5-yl)-3,4-dihydro-1,4-methanopyrido[2,3-b][1,4]diazepine-5(2H)-carboxamide] | A (EC1.5<1 μM) | A (Fold activation ≧150%)
Cc1cc(-c2ccc3c(n2)N(C(=O)Nc2cccc4nccnc24)[C@H]2CCN3C2)ccn1 [Example 131, (4S)-7-(2-methylpyridin-4-yl)-N-(quinoxalin-5-yl)-3,4-dihydro-1,4-methanopyrido[2,3-b][1,4]diazepine-5(2H)-carboxamide] | B (EC1.5 1-25 μM) | A (Fold activation ≧150%)
O=C(Nc1ccnc(OC[C@H](O)CO)c1)N1c2nc(-c3cccc(C(F)(F)F)c3)ccc2N2CC[C@H]1C2 [Example 132, (4S)-N-(2-((R)-2,3-dihydroxypropoxy)pyridin-4-yl)-7-(3-(trifluoromethyl)phenyl)-3,4-dihydro-1,4-methanopyrido[2,3-b][1,4]diazepine-5(2H)-carboxamide] | A (EC1.5<1 μM) | A (Fold activation ≧150%)
Cc1cc(-c2ccc3c(n2)N(C(=O)Nc2ccc4[nH]ncc4n2)[C@H]2CCN3C2)ccn1 [Example 133, (4S)-7-(2-methylpyridin-4-yl)-N-(1H-pyrazolo[4,3-b]pyridin-5-yl)-3,4-dihydro-1,4-methanopyrido[2,3-b][1,4]diazepine-5(2H)-carboxamide] | A (EC1.5<1 μM) | A (Fold activation ≧150%)

— patent publication US20170355705A1 (GlaxoSmithKline Intellectual Property (No.2) Limited, priority 2014, published 2017)
